Assay: xn = mol fraction of the nth substance listed
Settings: 101 kPa, Liquid

C1COCCO1 [1,4-dioxane] + CCCCCCOC(C)=O
x2 = 0
Settings	mass density [kg/m3]	speed of sound [m/s]	viscosity [mPa·s]
298.15 K	1028.2	1328	1.159
303.15 K	1022.7	1320	1.087
308.15 K	1017.4	1312	1.013
313.15 K	1011.1	1304	0.934

C=COCCCC [1-(ethenyloxy)butane] + CCCCCCOC(C)=O
Settings	mass density [kg/m3]	speed of sound [m/s]	viscosity [mPa·s]
298.15 K, x2 = 0	780.2	1096	0.4
298.15 K, x2 = 0.0806	790.9	1100	0.44
298.15 K, x2 = 0.1668	801.3	1104	0.486
298.15 K, x2 = 0.2521	810.8	1112	0.538
298.15 K, x2 = 0.3443	820.3	1120	0.596
298.15 K, x2 = 0.4384	829.2	1128	0.657
298.15 K, x2 = 0.5392	838.1	1144	0.726
298.15 K, x2 = 0.644	846.6	1160	0.798
298.15 K, x2 = 0.7555	854.7	1180	0.879
298.15 K, x2 = 0.8741	862.1	1204	0.965
303.15 K, x2 = 0	774.1	1084	0.387
303.15 K, x2 = 0.0806	784.6	1088	0.423
303.15 K, x2 = 0.1668	795.1	1088	0.465
303.15 K, x2 = 0.2521	804.8	1096	0.508
303.15 K, x2 = 0.3443	814.5	1104	0.559
303.15 K, x2 = 0.4384	823.7	1112	0.615
303.15 K, x2 = 0.5392	832.8	1124	0.675
303.15 K, x2 = 0.644	841.3	1140	0.739
303.15 K, x2 = 0.7555	849.5	1160	0.812
303.15 K, x2 = 0.8741	857.1	1184	0.891
308.15 K, x2 = 0	768.2	1072	0.365
308.15 K, x2 = 0.0806	778.6	1072	0.398
308.15 K, x2 = 0.1668	789.1	1072	0.434
308.15 K, x2 = 0.2521	798.8	1076	0.474
308.15 K, x2 = 0.3443	808.7	1084	0.52
308.15 K, x2 = 0.4384	818.1	1092	0.567
308.15 K, x2 = 0.5392	827.4	1104	0.622
308.15 K, x2 = 0.644	836.3	1120	0.681
308.15 K, x2 = 0.7555	844.8	1140	0.745
308.15 K, x2 = 0.8741	852.7	1164	0.817
313.15 K, x2 = 0	763.3	1060	0.354
313.15 K, x2 = 0.0806	773.6	1056	0.385
313.15 K, x2 = 0.1668	784	1056	0.418
313.15 K, x2 = 0.2521	793.7	1060	0.454
313.15 K, x2 = 0.3443	803.6	1064	0.496
313.15 K, x2 = 0.4384	813	1072	0.538
313.15 K, x2 = 0.5392	822.3	1084	0.588
313.15 K, x2 = 0.644	831.2	1100	0.641
313.15 K, x2 = 0.7555	839.7	1120	0.7
313.15 K, x2 = 0.8741	847.7	1144	0.763

COc1ccccc1 [anisole] + CCCCCCOC(C)=O
x2 = 0
Settings	mass density [kg/m3]	speed of sound [m/s]	viscosity [mPa·s]
298.15 K	993.6	1396	0.97
303.15 K	989.4	1380	0.917
308.15 K	984.6	1364	0.863
313.15 K	980	1348	0.803

CCCCCCOC(C)=O [hexyl ethanoate] + C1CCOC1
Settings	mass density [kg/m3]	speed of sound [m/s]	viscosity [mPa·s]
298.15 K, x1 = 0.0514	882.2	1260	0.485
298.15 K, x1 = 0.1091	882.2	1256	0.526
298.15 K, x1 = 0.1735	882.1	1248	0.57
298.15 K, x1 = 0.2467	881.7	1240	0.616
298.15 K, x1 = 0.3289	880.9	1236	0.669
298.15 K, x1 = 0.4241	879.6	1232	0.73
298.15 K, x1 = 0.5384	877.8	1232	0.79
298.15 K, x1 = 0.6648	875.5	1232	0.875
298.15 K, x1 = 0.8185	872.4	1232	0.967
298.15 K, x1 = 1	868.3	1236	1.071
303.15 K, x1 = 0.0514	878.8	1236	0.471
303.15 K, x1 = 0.1091	878.6	1232	0.504
303.15 K, x1 = 0.1735	878.3	1224	0.543
303.15 K, x1 = 0.2467	877.6	1212	0.584
303.15 K, x1 = 0.3289	876.6	1208	0.632
303.15 K, x1 = 0.4241	875.2	1204	0.683
303.15 K, x1 = 0.5384	873.3	1204	0.745
303.15 K, x1 = 0.6648	870.9	1204	0.812
303.15 K, x1 = 0.8185	867.7	1204	0.892
303.15 K, x1 = 1	863.9	1216	0.982
308.15 K, x1 = 0.0514	872.9	1216	0.456
308.15 K, x1 = 0.1091	872.7	1208	0.484
308.15 K, x1 = 0.1735	872.4	1200	0.518
308.15 K, x1 = 0.2467	871.9	1188	0.554
308.15 K, x1 = 0.3289	871.2	1184	0.595
308.15 K, x1 = 0.4241	870	1180	0.641
308.15 K, x1 = 0.5384	868.2	1180	0.692
308.15 K, x1 = 0.6648	866	1180	0.751
308.15 K, x1 = 0.8185	863	1180	0.819
308.15 K, x1 = 1	859.8	1196	0.898
313.15 K, x1 = 0.0514	866.7	1200	0.416
313.15 K, x1 = 0.1091	866.5	1188	0.444
313.15 K, x1 = 0.1735	866.2	1176	0.475
313.15 K, x1 = 0.2467	865.8	1168	0.508
313.15 K, x1 = 0.3289	865.2	1164	0.547
313.15 K, x1 = 0.4241	864.2	1156	0.591
313.15 K, x1 = 0.5384	862.6	1152	0.639
313.15 K, x1 = 0.6648	860.5	1152	0.695
313.15 K, x1 = 0.8185	857.8	1152	0.761
313.15 K, x1 = 1	855	1176	0.836

CCCCCCOC(C)=O [hexyl ethanoate] + C1COCCO1
Settings	mass density [kg/m3]	speed of sound [m/s]	viscosity [mPa·s]
298.15 K, x1 = 0.0546	1015	1312	1.143
298.15 K, x1 = 0.1152	1000.7	1292	1.131
298.15 K, x1 = 0.1825	985.9	1280	1.119
298.15 K, x1 = 0.2572	970.6	1268	1.106
298.15 K, x1 = 0.3416	954.6	1256	1.096
298.15 K, x1 = 0.4094	942.8	1248	1.093
298.15 K, x1 = 0.4773	931.9	1240	1.088
298.15 K, x1 = 0.5836	916.5	1236	1.08
298.15 K, x1 = 0.7044	900.8	1236	1.077
298.15 K, x1 = 1	868.3	1236	1.071
303.15 K, x1 = 0.0546	1009	1300	1.076
303.15 K, x1 = 0.1152	994.8	1280	1.063
303.15 K, x1 = 0.1825	979.9	1268	1.049
303.15 K, x1 = 0.2572	964.6	1256	1.037
303.15 K, x1 = 0.3416	948.8	1244	1.026
303.15 K, x1 = 0.4094	937.1	1236	1.019
303.15 K, x1 = 0.4773	926.4	1228	1.014
303.15 K, x1 = 0.5836	911.1	1224	1.005
303.15 K, x1 = 0.7044	895.7	1224	0.997
303.15 K, x1 = 1	863.9	1216	0.982
308.15 K, x1 = 0.0546	1003.4	1288	0.987
308.15 K, x1 = 0.1152	988.9	1268	0.975
308.15 K, x1 = 0.1825	974	1256	0.962
308.15 K, x1 = 0.2572	958.8	1244	0.951
308.15 K, x1 = 0.3416	943.2	1232	0.942
308.15 K, x1 = 0.4094	931.7	1224	0.935
308.15 K, x1 = 0.4773	921.1	1216	0.93
308.15 K, x1 = 0.5836	906	1212	0.921
308.15 K, x1 = 0.7044	890.8	1212	0.913
308.15 K, x1 = 1	859.8	1196	0.898
313.15 K, x1 = 0.0546	996.8	1280	0.935
313.15 K, x1 = 0.1152	982.2	1256	0.924
313.15 K, x1 = 0.1825	967.3	1244	0.912
313.15 K, x1 = 0.2572	952.3	1232	0.9
313.15 K, x1 = 0.3416	937	1216	0.889
313.15 K, x1 = 0.4094	925.7	1208	0.88
313.15 K, x1 = 0.4773	915.2	1204	0.874
313.15 K, x1 = 0.5836	900.3	1200	0.864
313.15 K, x1 = 0.7044	885.2	1200	0.855
313.15 K, x1 = 1	855	1176	0.836

CCCCCCOC(C)=O [hexyl ethanoate] + C=COCCCC
x1 = 1
Settings	mass density [kg/m3]	speed of sound [m/s]	viscosity [mPa·s]
298.15 K	868.3	1236	1.071
303.15 K	863.9	1216	0.982
308.15 K	859.8	1196	0.899
313.15 K	855	1176	0.836

Reference: the NIST ThermoML archive (doi:10.1021/je400539h)
